Measurements as given in PMC10338470, “Phase 1 study of GSK3368715, a type I PRMT inhibitor, in patients with advanced solid tumors” (British Journal of Cancer, 2023).

Experiments:
[1] = system: ADMA-R225-hnRNP-A1 in PBMCs; assay: ADMA-R225-hnRNP-A1 in PBMCs (LC-MS), target engagement; format: in vivo, human
Description: Tumor cell and plasma target engagement PD biomarkers were assessed in the dose-escalation cohort on days 1, 8, 15, and 22. In the PK/PD cohort, urine for PK and metabolite profiling was collected postdose on day 1 and through 48 h postdose on day 2, and for 24 h postdose on day 15. Participants underwent an on-treatment tumor biopsy on day 15. Asymmetric arginine 225 (R225) methylation of heterogeneous nuclear ribonucleoprotein A1 (hnRNP-A1) was identified as a target engagement PD of type I PRMT inhibition; treatment with GSK3368715 results in the reduction of asymmetric dimethylarginine 225 (ADMA-R225) on hnRNP-A1 protein in cancer cell lines and peripheral blood mononuclear cells (PBMCs). Noto et al. describe in detail the identification of hnRNP-A1 as a pharmacodynamic biomarker of type I PRMT inhibition, and the development of novel methodologies to accurately and precisely quantitate changes in the levels of ADMA on hnRNP-A1 in both blood and tumor compartments. Levels of ADMA-R225-hnRNP-A1 were measured in fresh frozen and formalin-fixed paired biopsies by liquid chromatography-mass spectrometry (LC-MS) and immunohistochemistry (IHC).
To measure the ADMA-R225-hnRNP-A1 in the PBMCs, blood was collected using the standard technique for BD Vacutainer® Evacuated Blood Collection Tubes. The PBMC aspirate prepared was used for the ADMA analyses as previously described by the LC-MS method.

[2] = system: acute myeloid leukemia (AML) cell lines; design: method as in PMID 31257072; conditions: acute myeloid leukemia (AML) cell lines ref [6]; cited from earlier work
[3] = Plasma pharmacokinetics (LC-MS-MS, noncompartmental analysis); format: in vivo, human; conditions: for AUC0-24, geometric mean (%CVb) / Cmax, geometric mean (%CVb) / t1/2, geometric mean (%CVb) / tmax, median (range): plasma
Description: In both the dose-escalation and PK/PD cohorts, plasma samples for PK analysis were obtained following dosing on day 1 and pre- and postdose on days 2, 3, 4, 8, 15, 16, 22, and predose every 4 weeks thereafter. Plasma concentrations for GSK3368715 and its metabolites (GSK3963583, GSK3983164, and GSK3510519) were quantified using a validated ultra high-performance liquid chromatography-mass spectrometry-mass spectrometry (LC-MS-MS) method. PK parameters were analyzed using noncompartmental methods.
Adverse events and DLTs were summarized descriptively by dose cohort. Pharmacokinetic parameters of GSK3368715 and its metabolites (GSK3963583 and GSK3983164) were estimated in the PK/PD population (all participants for whom a PK sample was obtained) using a noncompartmental analysis model (WinNonlin version 8.1) and summarized descriptively. Best overall response as per RECIST 1.1 was summarized descriptively by dose cohort. Levels of tumor cell and plasma pharmacodynamic biomarkers were also summarized descriptively.

[4] = GSK3368715 50-mg dose escalation cohort, Day 1
[5] = GSK3368715 50-mg dose escalation cohort, Day 15
[6] = GSK3368715 100-mg PK/PD cohort, Day 1
[7] = GSK3368715 100-mg PK/PD cohort, Day 15
[8] = GSK3368715 100-mg dose escalation cohort, Day 1
[9] = GSK3368715 100-mg dose escalation cohort, Day 15
[10] = GSK3368715 100-mg total, Day 15

CCOCC1(COCC)CCC(c2[nH]ncc2CN(C)CCNC)CC1 [GSK3368715]
Reduction of ADMA-R225-hnRNP-A1 in PBMCs, mean (SE 5.81%) ([1]; 100 mg, day 15): 43.1%
Reduction of ADMA-R225-hnRNP-A1 in PBMCs, mean (SE 6.92%) ([1]; 200-mg dose group, day 15): 54.7%
Target engagement in the blood ([1]; in vivo): observed
Cell lines with cytotoxic responses [2]: 50%
Increase of Cmax and AUC0−24 with dose ([3]; dose range studied (50-200 mg)): dose proportional
PK variability (%CVb) ([3]; in vivo): high PK variability
AUC0-24, geometric mean (%CVb) ([3]; GSK3368715 200 mg, Day 1): 1274.7 (43.8) h•ng/mL
Cmax, geometric mean (%CVb) ([3]; GSK3368715 200 mg, Day 1): 336.8 (72.6) ng/mL
t1/2, geometric mean (%CVb) ([3]; GSK3368715 200 mg, Day 1): 15.9 h
tmax, median (range) ([3]; GSK3368715 200 mg, Day 1): 1.1 (0.4, 3.1) h
AUC0-24, geometric mean (%CVb) ([3]; GSK3368715 200 mg, Day 15): 4861.4 (45.3) h•ng/mL
Cmax, geometric mean (%CVb) ([3]; GSK3368715 200 mg, Day 15): 729.2 (42.8) ng/mL
t1/2, geometric mean (%CVb) ([3]; GSK3368715 200 mg, Day 15): 2.9 (43.5) h
tmax, median (range) ([3]; GSK3368715 200 mg, Day 15): 1.0 (0.5, 3.1) h
AUC0-24, geometric mean (%CVb) [3, 4]: 259.5 (--) h•ng/mL
Cmax, geometric mean (%CVb) [3, 4]: 107.2 (48.8) ng/mL
tmax, median (range) [3, 4]: 0.28 (0.25, 1.1) h
AUC0-24, geometric mean (%CVb) [3, 5]: 581.9 (101.4) h•ng/mL
Cmax, geometric mean (%CVb) [3, 5]: 111.9 (48.5) ng/mL
tmax, median (range) [3, 5]: 3.0 (0.5, 3.1) h
AUC0-24, geometric mean (%CVb) [3, 6]: 937.6 (30.9) h•ng/mL
Cmax, geometric mean (%CVb) [3, 6]: 237.6 (62.3) ng/mL
t1/2, geometric mean (%CVb) [3, 6]: 8.8 (--) h
tmax, median (range) [3, 6]: 0.5 (0.3, 3.1) h
AUC0-24, geometric mean (%CVb) [3, 7]: 1628.8 (60.4) h•ng/mL
Cmax, geometric mean (%CVb) [3, 7]: 382.7 (67.4) ng/mL
t1/2, geometric mean (%CVb) [3, 7]: 1.4 (--) h
tmax, median (range) [3, 7]: 1.0 (0.5, 2.1) h
AUC0-24, geometric mean (%CVb) [3, 8]: 1020.7 (26.7) h•ng/mL
Cmax, geometric mean (%CVb) [3, 8]: 145.0 (207.3) ng/mL
t1/2, geometric mean (%CVb) [3, 8]: 7.2 (--) h
tmax, median (range) [3, 8]: 0.5 (0.3, 3.1) h
AUC0-24, geometric mean (%CVb) [3, 9]: 1479.6 (79.7) h•ng/mL
Cmax, geometric mean (%CVb) [3, 9]: 362.9 (115.9) ng/mL
t1/2, geometric mean (%CVb) [3, 9]: 1.8 (--) h
tmax, median (range) [3, 9]: 0.9 (0.5, 1.1) h
AUC0-24, geometric mean (%CVb) ([3]; GSK3368715 100-mg total, Day 1): 972.3 (27.1) h•ng/mL
Cmax, geometric mean (%CVb) ([3]; GSK3368715 100-mg total, Day 1): 197.4 (112.1) ng/mL
t1/2, geometric mean (%CVb) ([3]; GSK3368715 100-mg total, Day 1): 7.9 h
tmax, median (range) ([3]; GSK3368715 100-mg total, Day 1): 0.5 (0.3, 3.1) h
AUC0-24, geometric mean (%CVb) [3, 10]: 1573.8 (64.2) h•ng/mL
Cmax, geometric mean (%CVb) [3, 10]: 375.5 (79.9) ng/mL
t1/2, geometric mean (%CVb) [3, 10]: 1.6 (15.6) h
tmax, median (range) [3, 10]: 0.9 (0.5, 2.1) h
